# Experimental data: US20220184000A1, “USE OF CANNABIDIOL IN THE TREATMENT OF DRAVET SYNDROME” (priority 2019, published 2022)
# How the values were obtained:
# Assay type in all cases: in vivo
# Scn1a^+/− mice [1] = experiment: Static beam test (motor function), Study II; details: CBD 100 mg/kg s.c. twice daily
# Description: (§1) Here, Scn1a^+/− were randomly divided into two groups and subcutaneously injected with either CBD (100 mg/kg twice daily; n=12) or its vehicle (ethanol:Kolliphor®:0.9% saline=2:1:17; n=29) from P8 onwards until P52 or death (whichever was earlier).
# The static beam task was further employed to analyse balance and coordination (Sedy, Urdzikova, Jendelova, & Sykova, 2008), where the animals were required to walk along a cylindrical elevated beam (100 cm long, 0.9 cm diameter and 50 cm height from floor) and enter a dark enclosure at the beam end. The mice were habituated to the task for three consecutive days before the test day. […] The test was video monitored (Sony DCR-SX21E) and blinded offline analysis was conducted (Observer XT 12, Noldus, The Netherlands) to evaluate the average number of foot slips made from two consecutive trials.
# (§2) In Study II, the data were analysed in GraphPad Prism 6 software. […] Data obtained from rotarod, gait, social interaction (active interaction), EPM, sucrose preference, RAM (RME) tests were normally distributed and the differences between the three groups were analysed by one-way ANOVA. […] Parametric data are presented in scattered dot plot in the figures and are expressed as mean±SEM. Non-parametric data are presented in box plot in the figures and are expressed as median, min to max, and interquartile range (IQR). […]
# wild type (WT) mice = experiment: Neonatal welfare scoring (TNW) in wild type mice, Study I
# Description: 129S-Scn1a^tm1Keammjax heterozygote mice (Jackson Laboratory, USA) were maintained in and bred together to obtain Scn1a^−/− and wild type (WT) animals used for this Study (n=10 per group).
# Following genotyping, animals were randomly divided into four groups WT vehicle-treated, WT CBD-treated, Scn1a^−/− vehicle-treated and Scn1a^−/− CBD-treated (n=10/group). They were injected subcutaneously twice daily with either CBD (100 mg/kg) or its vehicle (ethanol:Kolliphor®:0.9% saline=2:1:17) from P8 until P25 or death (whichever was earlier).
# A twice daily welfare check was conducted throughout the entire duration of the study. Drug administration was conducted at 0800 h and followed by welfare checks. Conversely, afternoon welfare checks were conducted from 1600 h and followed by drug administration in order to provide the maximum possible time between doses. […]
# The parameters used for the welfare assessment were: weight, natural activity (NA; 0-3), reflex/response to touch (RT; 0-3), orbital tightening (OT; 0-2), and body condition score (BC; 1-3). A total neonatal welfare score (TNW; range 0-8) was calculated by adding together scores from NA, RT, and […].
# In Study I, the welfare parameters were analysed using SPSS 24 (IBM SPSS Statistics®, UK), whilst survival data were analysed using GraphPad Prism 6 software (GraphPad Software, Inc., USA). […] All the data are expressed as mean±SEM. […]
# Scn1a^+/− mice [2] = experiment: Social interaction test, Study II; details: CBD 100 mg/kg s.c. twice daily
# Description: as §1
# The social interaction test was conducted in the home cage of test mouse to assess the social behaviour of the animals (Sato, Mizuguchi, & Ikeda, 2013). On test day, cage mate(s) were removed from the home cage of the test mouse and the mouse remained in isolation for 15 minutes. A novel wild type mouse of same strain, same sex and similar weight to the test mouse was then introduced to the home cage of the test mouse. Activity was video recorded (Sony DCR-SX21E) for 10 minutes and the obtained video files were blinded at the end of all experiments. Time spent in active interactions (e.g. close following, sniffing, allogrooming/social grooming and mounting) and number of rearing (lifting the front paws on the air) occasions were coded offline using Observer XT 12 (Noldus, Netherlands). Aggressive behaviours were not considered as social interactions and were not coded. In this test, a reduced social interaction is considered as autistic-like behaviour (Sato et al., 2013), while increased rearing occasions is sign of defensive escapes (Kaplan et al., 2017).
# as §2, with “software. Survival curves of Scn1a^+/− vehicle-treated and Scn1a^+/− CBD-treated group were compared using a Mantel-Cox test.” for “software.”
# Scn1a^+/− mice [3] = experiment: Elevated plus maze (EPM) test, anxiety-like behaviour, Study II; details: CBD 100 mg/kg s.c. twice daily
# Description: as §1
# The elevated plus maze (EPM) test was performed to assess the level of anxiety in animals (M. Chen et al., 2017). The wooden test apparatus consists of two closed arms (50×10×40 cm) and two open arms (50×10 cm) connected via a central platform (10×10 cm) and raised at a height of 50 cm above the floor. Each animal was placed on the central platform facing towards an open arm. Activity was video recorded (Swann SRDVR-16440H, UK) for 5 minutes. The video files were blinded and coded offline at the end of all experiments using Observer XT 12 (Noldus, Netherlands). Time spent on open arms was inversely related to the level of anxiety.
# as §2
smiles,measurement,setting,value
"C=C(C)[C@@H]1CCC(C)=C[C@H]1c1c(O)cc(CCCCC)cc1O [CBD, cannabidiol]","number of foot slips, Scn1a^+/− CBD-treated versus Scn1a^+/− vehicle-treated","Scn1a^+/− mice [1]; p=0.23, FIG. 3B",no significant difference
same,"number of foot slips, Scn1a^+/− CBD-treated versus WT vehicle-treated",Scn1a^+/− mice [1]; p=0.48,no significant difference
same,TNW score versus WT vehicle-treated animals (post hoc),"wild type (WT) mice; P8-P8.5, first day of treatment, CBD 100 mg/kg s.c. twice daily, p<0.05, FIG. 1A",improved TNW score
same,mean total neonatal welfare (TNW) score,"wild type (WT) mice; WT CBD-treated group, CBD 100 mg/kg s.c. twice daily from P8 until P25, n=10, mean±SEM, score range 0-8, vehicle group 0.39±0.04",0.24±0.04
same,"rearing events, Scn1a^+/− CBD-treated versus WT vehicle-treated",Scn1a^+/− mice [2]; p=0.55,No difference
same,"time spent on active interaction, Scn1a^+/− vehicle-treated compared to Scn1a^+/− CBD-treated","Scn1a^+/− mice [2]; statement describes vehicle group relative to CBD group (n=10), p=0.0003, FIG. 4A",significantly less time
same,"number of rearing occasions, Scn1a^+/− vehicle-treated compared to Scn1a^+/− CBD-treated","Scn1a^+/− mice [2]; statement describes vehicle group relative to CBD group, p=0.0003, FIG. 4B",significantly higher number of rearing occasions
same,"time spent on open arms (EPM), Scn1a^+/− CBD-treated versus WT vehicle-treated",Scn1a^+/− mice [3]; p=0.73,not different
same,"time spent on open arms (EPM), Scn1a^+/− vehicle-treated compared to Scn1a^+/− CBD-treated","Scn1a^+/− mice [3]; statement describes vehicle group relative to CBD group (n=10), p=0.02, FIG. 4C",significantly less time on the open arms
